Test results reported in patent publication US20020091095A1, “Modulation of Fas and FasL expression” (priority 1999, published 2002).

Columns and labels:
FasL [1] = experiment: FasL expression at the cell surface by flow cytometry, T-24 cells; assay type: cell-based, human; details: T-24 bladder cancer cells, 100 μg/ml sequence, 48 h, treated vs control cells
How it was run: (§1)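 T-24 bladder cancer cells (p53-mutant, human) at 1.0×10^5 cells/ml were exposed for 48 h at 37 °C to 100 μg/ml […] of 6-base sequences or to no sequence. Fas and FasL were stained with FITC- and PE-labelled monoclonal antibodies and read by flow cytometry. Values are % increase versus untreated cells.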

FasL [2] = experiment: FasL expression at the cell surface by flow cytometry, Jurkat cells; assay type: cell-based; details: Jurkat human leukemia T cells, 100 μg/ml sequence, 48 h, treated vs control cells
How it was run: (§2)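 Jurkat cells (2×10^5 cells/ml) were incubated 48 h at 37° C. with 0 or 100 μg/ml (5.5 μM) of the sequences. Surface Fas and FasL were stained with FITC anti-Fas and PE anti-FasL antibodies and measured by flow cytometry, expressed as % increase over control cells.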

FasL [3] = experiment: FasL expression at the cell surface by flow cytometry, UMUC-3 cells; assay type: cell-based, human; details: UMUC-3 bladder cancer cells, 100 μg/ml sequence, 48 h, treated vs control cells
How it was run: (§3)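 Cells at 2×10^5 cells/ml treated 48 h at 37° C, 5% CO2 with 100 μg/ml (5.5 μM) sequence or 0 μg/ml control. Surface Fas (FITC) and FasL (PE) antibody-stained and read by flow cytometry. Values are % increase over control cells.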

Fas [4] = experiment: Inhibition of Fas expression on Jurkat cells by cycloheximide; assay type: cell-based, human; details: for % INCREASE of Fas: Jurkat cells
Experimental: Fas and FasL expression were measured by flow cytometry using anti-Fas FITC-conjugated monoclonal antibodies and anti-FasL PE-conjugated monoclonal antibodies in a FACScalibur Flow Cytometer (Becton Dickinson, San Jose, Calif., USA) using the CELLQuest program (Becton Dickinson).
Results are expressed as percentage (%) increase in the expression of Fas and of FasL measured on treated cells compared to control cells.
Jurkat human leukemia T cells were pre-incubated with 0.0 μg/ml (−CHX) or with 0.1 μg/ml of cycloheximide (+CHX) for 1 h. Ten μg/ml or 100 μg/ml of 6 base SEQ ID NO:5 (GGGTGG) was added to both the −CHX and +CHX cells and the incubation was continued for 24 hours and for 48 hours (Table 10).

Fas [5] = experiment: Fas expression at the cell surface by flow cytometry, MCF-7 cells; assay type: cell-based, human; details: MCF-7 breast cancer cells, 100 μg/ml sequence, 48 h, treated vs control cells
How it was run: (§4)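 MCF-7 cells at 2×10^5 cells/ml incubated 48 h at 37° C, 5% CO2 with 0 or 100 μg/ml (5.5 μM) of the sequences. Surface Fas and FasL measured by flow cytometry with FITC anti-Fas and PE anti-FasL antibodies; values as % increase in treated versus control cells.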

Fas [6] = experiment: Fas expression at the cell surface by flow cytometry, PBMCs; assay type: cell-based, human; details: 100 μg/ml sequence, 48 h, treated vs control cells
How it was run: (§5)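 PBMCs isolated by Ficoll-Hypaque gradient were seeded at 2×10^5 cells/ml and exposed for 48 h at 37 °C to 0 or 100 μg/ml (5.5 μM) of the sequences. Surface Fas and FasL were stained with FITC anti-Fas and PE anti-FasL antibodies and analysed by flow cytometry, reported as % increase over untreated cells.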

Fas [7] = experiment: Fas expression at the cell surface by flow cytometry, SK-OV-3 cells; assay type: cell-based, human; details: SK-OV-3 ovarian cancer cells, 100 μg/ml sequence, 48 h, treated vs control cells
How it was run: (§6)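 Cells at 2×10^5 cells/ml were treated 48 h at 37 °C, 5% CO2 with 100 μg/ml (5.5 μM) sequence or none. Surface Fas and FasL were stained with FITC anti-Fas and PE anti-FasL antibodies and read by flow cytometry. Values are % increase in expression over untreated cells.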

FasL [8] = experiment: FasL expression at the cell surface by flow cytometry, PBMCs; assay type: cell-based, human; details: 100 μg/ml sequence, 48 h, treated vs control cells
How it was run: as §5

Fas [9] = experiment: Fas expression at the cell surface by flow cytometry, T-24 cells; assay type: cell-based, human; details: T-24 bladder cancer cells, 100 μg/ml sequence, 48 h, treated vs control cells
How it was run: as §1

FasL [10] = experiment: FasL expression at the cell surface by flow cytometry, OVCAR-3 cells; assay type: cell-based, human; details: OVCAR-3 ovarian cancer cells, 100 μg/ml sequence, 48 h, treated vs control cells
How it was run: (§7)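 OVCAR-3 cells (2×10^5 cells/ml) incubated 48 h at 37° C with 0 or 100 μg/ml (5.5 μM) of the sequences. Surface Fas and FasL stained with FITC- and PE-conjugated monoclonal antibodies, read by flow cytometry; values are % increase over untreated controls.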

FasL [11] = experiment: FasL expression at the cell surface by flow cytometry, LNCaP cells; assay type: cell-based, human; details: LNCaP prostate cancer cells, 100 μg/ml sequence, 48 h, treated vs control cells
How it was run: (§8)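 Cells at 2×10^5 cells/ml were treated 48 h at 37° C with 100 μg/ml (5.5 μM) of the sequences or left untreated. Surface Fas and FasL were stained with FITC anti-Fas and PE anti-FasL antibodies and measured by flow cytometry. Values are % increase in expression over control cells.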

FasL [12] = experiment: FasL expression at the cell surface by flow cytometry, SK-OV-3 cells; assay type: cell-based, human; details: SK-OV-3 ovarian cancer cells, 100 μg/ml sequence, 48 h, treated vs control cells
How it was run: as §6

Jurkat T leukemia cells = experiment: Inhibition of Jurkat leukemia T cell proliferation (MTT reduction); assay type: cell-based, human; details: for % INHIBITION of cell proliferation: Jurkat, 48 h
Experimental: (§9) UMUC-3 bladder cancer cells were incubated for 48 hours with 0.00, 0.02 and 0.20 μg/ml of agonistic anti-Fas monoclonal antibodies (clone CH-11: Coulter-Immunotech, Marseille, France) +0 or 10 μg/ml of SEQ ID NO:5. Cell proliferation was measured using dimethylthiazol-diphenyltetrazolium (MTT) reduction (Mosman et al. J. Immunol. Methods 65:55, 1983). MTT was measured at a wavelength of 570 nm using a multiplate spectrophotometer reader (ELX800, Bio-TEK Instruments Inc., Winooski, Vt.).
Jurkat T leukemia cells were incubated for 48 hours with 0.00, 0.02 and 0.20 μg/ml of agonistic anti-Fas monoclonal antibodies (clone CH-11) +0 and 10 μg/ml of SEQ ID NO:5. Cell proliferation was measured as in Example 13.

[13] = system: UMUC-3 bladder cancer cells; experiment: Inhibition of UMUC-3 bladder cancer cell proliferation (MTT reduction); assay type: cell-based, human; details: for % INHIBITION of cell proliferation: UMUC-3, 48 h
Experimental: as §9

Fas [14] = experiment: Fas expression at the cell surface by flow cytometry, Jurkat cells; assay type: cell-based; details: Jurkat human leukemia T cells, 100 μg/ml sequence, 48 h, treated vs control cells
How it was run: as §2

Fas [15] = experiment: Fas expression at the cell surface by flow cytometry, LNCaP cells; assay type: cell-based, human; details: LNCaP prostate cancer cells, 100 μg/ml sequence, 48 h, treated vs control cells
How it was run: as §8

Fas [16] = experiment: Fas expression at the cell surface by flow cytometry, OVCAR-3 cells; assay type: cell-based, human; details: OVCAR-3 ovarian cancer cells, 100 μg/ml sequence, 48 h, treated vs control cells
How it was run: as §7

FasL [17] = experiment: FasL expression at the cell surface by flow cytometry, MCF-7 cells; assay type: cell-based, human; details: MCF-7 breast cancer cells, 100 μg/ml sequence, 48 h, treated vs control cells
How it was run: as §4

Fas [18] = experiment: Fas expression at the cell surface by flow cytometry, UMUC-3 cells; assay type: cell-based, human; details: UMUC-3 bladder cancer cells, 100 μg/ml sequence, 48 h, treated vs control cells
How it was run: as §3

[19] = 10 μg/ml sequence + anti-Fas antibodies 0.02 μg/ml
[20] = 10 μg/ml sequence, anti-Fas antibodies 0.0 μg/ml

GGGTGG [SEQ ID NO:5]
% INCREASE FasL (FasL [1]): 13% | % INCREASE FasL (FasL [2]): 145% | % INCREASE FasL (FasL [3]): 143% | Fas expression (Fas [4]; Jurkat T cells, 10 or 100 μg/ml, 24 h and 48 h): upregulated Fas expression | % INCREASE of Fas (Fas [4]; 10 μg/ml sequence, 24 h, +CHX (0.1 μg/ml cycloheximide)): 5% | % INCREASE of Fas (Fas [4]; 10 μg/ml sequence, 24 h, −CHX): 63% | % INCREASE of Fas (Fas [4]; 10 μg/ml sequence, 48 h, +CHX (0.1 μg/ml cycloheximide)): 51% | % INCREASE of Fas (Fas [4]; 10 μg/ml sequence, 48 h, −CHX): 91% | % INCREASE of Fas (Fas [4]; 100 μg/ml sequence, 24 h, +CHX (0.1 μg/ml cycloheximide)): 22% | % INCREASE of Fas (Fas [4]; 100 μg/ml sequence, 24 h, −CHX): 62% | % INCREASE of Fas (Fas [4]; 100 μg/ml sequence, 48 h, +CHX (0.1 μg/ml cycloheximide)): 115% | % INCREASE of Fas (Fas [4]; 100 μg/ml sequence, 48 h, −CHX): 150% | % INCREASE Fas (Fas [5]): 93% | % INCREASE Fas (Fas [6]): 3% | % INCREASE Fas (Fas [7]): 3% | % INCREASE FasL (FasL [8]): −20% | % INCREASE Fas (Fas [9]): 80% | % INCREASE FasL (FasL [10]): 9% | % INCREASE FasL (FasL [11]): −1% | % INCREASE FasL (FasL [12]): −31% | combined effect with agonistic anti-Fas antibodies on cell proliferation (Jurkat T leukemia cells; Jurkat T cells, 0.02 and 0.2 μg/ml anti-Fas antibodies, 10 μg/ml sequence): additive | % INHIBITION of cell proliferation (Jurkat T leukemia cells; [19]): 28% | % INHIBITION of cell proliferation (Jurkat T leukemia cells; 10 μg/ml sequence + anti-Fas antibodies 0.2 μg/ml): 48% | % INHIBITION of cell proliferation (Jurkat T leukemia cells; [20]): 16% | effect on the inhibitory activity of agonistic anti-Fas antibodies on cell proliferation ([13]; UMUC-3, 0.02 and 0.2 μg/ml anti-Fas antibodies, 10 μg/ml sequence): potentiated | % INHIBITION of cell proliferation [13, 19]: 38% | % INHIBITION of cell proliferation ([13]; 10 μg/ml sequence + anti-Fas antibodies 0.02 μg/ml (third column)): 44% | % INHIBITION of cell proliferation [13, 20]: 23% | % INCREASE Fas (Fas [14]): 150% | % INCREASE Fas (Fas [15]): 15% | % INCREASE Fas (Fas [16]): 43% | % INCREASE FasL (FasL [17]): 81% | % INCREASE Fas (Fas [18]): 67%
